Results published in article PMC12084297, “Cytoplasmic connexin43-microtubule interactions promote glioblastoma stem-like cell maintenance and tumorigenicity” (Cell Death & Disease, 2025).

Test system: Cx43
Assay: Cx43 protein expression, immunoblot, VTC-037 GSCs
Type: cell-based, human
Settings: 50 μM, 24 h
Protocol: Cells were lysed in RIPA buffer (0.1% sodium dodecyl sulphate, 50 mM Tris pH 7.4, 150 mM NaCl, 1 mM EDTA, 1% Triton X-100, 1% deoxycholic acid, 200 μM Na3VO4, and 1 mM NaF) supplemented with Halt^TM Protease and Phosphatase Inhibitor Cocktail (Thermo Fisher). Lysates were sonicated prior to centrifugation at 4 °C for 20 min at 10,000 x g. Protein concentration was quantified using the DC protein assay (Bio-Rad Laboratories) and a standard curve obtained with increasing concentrations of Bovine Serum Albumin (BSA; Fisher Scientific). Protein samples were normalized to 20 μg total protein per lane and resolved by SDS-PAGE electrophoresis. 4X Bolt LDS sample buffer supplemented with 400 mM DTT (final concentration 1X Bolt LDS with 100 mM DTT) was added to samples before heating at 70 °C for 10 min. SDS-PAGE was run using NuPAGE Bis-Tris 4%–12% gradient gels (Thermo Fisher) with MES or MOPS running buffer according to manufacturer’s instructions. Spectra™ Multicolor Protein Ladder (Thermo Fisher) or Precision Plus Protein™ Kaleidoscope™ Prestained Protein Standards (Bio-Rad Laboratories) were included as protein ladders on the same gels. […] Membranes were imaged on a ChemiDoc™ imaging system, and analyzed with Image Lab software (Bio-Rad Laboratories). […]

Sequence: VFFKGVKDRVKGRSD [JM2]
- Cx43 protein expression: without affecting Cx43 expression
